Experimental data published in patent US11161819B2, “Substituted tetrahydroisoquinoline compounds useful as GPR120 agonists” (Merck Sharp & Dohme Corp., priority 2016, dated 2021).

Target: T1, human GPR120 (Homo sapiens, UniProt Q5NUL3)
T1 construct: expressed in transfected cells
T1 sequence (Q5NUL3 1-361): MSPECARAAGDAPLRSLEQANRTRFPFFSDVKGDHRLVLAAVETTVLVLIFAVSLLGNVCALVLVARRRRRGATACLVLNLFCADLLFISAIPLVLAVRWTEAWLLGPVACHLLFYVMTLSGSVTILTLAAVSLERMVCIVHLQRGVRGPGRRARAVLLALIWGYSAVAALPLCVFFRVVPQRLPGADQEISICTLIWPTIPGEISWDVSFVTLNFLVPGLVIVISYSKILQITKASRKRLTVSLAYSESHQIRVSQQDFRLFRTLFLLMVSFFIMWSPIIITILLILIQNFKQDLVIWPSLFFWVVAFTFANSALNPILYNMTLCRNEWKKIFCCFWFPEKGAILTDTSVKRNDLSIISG
Experiment: Human GPR120 IP1 Assay (inositol phosphate turnover, CisBio IP-One kit)
Type: cell-based
Details: IP1 accumulation in CHO-K1 cells stably expressing the short form of human GPR120; 60 min compound incubation; 4-parameter fit; read-out: hGPR120 EC50
Excerpt: Human GPR120 IP1 Assay Principle
The binding of small molecule agonists to the G-protein-coupled receptor GPR120 activates phospholipase C, and leads to the generation of inositol 1,4,5-trisphosphate (InsP3 or IP3). IP3 is subsequently de-phosphorylated to IP1, which accumulates in cells and is stable in the presence of lithium chloride.
In the present method, agonist-induced activation of the human GPR120 receptor was monitored by measuring the accumulation of IP1 in CHO-K1 cells that were stably expressing the short form of human GPR120 (Accession #NM_001195755). Following agonist addition, GPR120 activation and subsequent accumulation of IP1 was measured using a homogeneous Time Resolved Fluorescence-based ELISA commercially available from CisBio (IP-one ELISA Kit). The IP-One ELISA was a competitive immunoassay which uses IP1 labeled with […] and a terbium cryptate-labeled anti-IP1 monoclonal antibody. […] The signal loss was then back calculated to IP1 concentration using an IP1 standard curve. Determination of IP1 concentration was a direct measure of GPR120 activation and was used to determine compound potency (EC50).
Generation of GPR120-Expressing Cells:
Human GPR120 stable cell-lines were generated in CHO cells. The expression plasmids were transfected using lipofectamine (Life Technologies) following manufacturer's instructions. Stable cell-lines were generated following drug selection and single cell cloning.
Inositol Phosphate Turnover (IP1) Assay:
The assay was performed in 384-well format. CHO cells stably expressing human GPR120 were plated at […] per well in growth medium (DMEM/F12, 10% fetal calf serum). Cell plates were then incubated 16 hours at 37 degrees in a 5% CO2 incubator. Measurement of Inositol Phosphate Turnover (IP1) was performed using the CisBio IP-One kit (Part number 62IPAPEB). After the 16 hour incubation, the growth media was removed by centrifugation using the BlueWasher (AusWasher GUI Ver. v1.0.1.8) Protocol #21-“Light Dry” and 10 ul of stimulation buffer (prepared as described in the kit) was added to each well. In a separate plate, compounds were diluted in DMSO (200-fold over the final concentration in the assay well) and 50 nl was acoustically transferred to the appropriate well in the assay cell plate. The plates were then incubated for 60 minutes at 37 degrees in a 5% CO2 incubator. 10 ul of detection buffer (also prepared as described in the IP-One kit) was added to each well and the plates were incubated at room temperature for 60 minutes in the dark. The plates were then read in a Perkin Elmer EnVision or equivalent reader able to measure FRET. Fluorescent ratio of emission at 665 and 620 nm was then converted to the IP1 concentration by back calculating from an IP1 standard curve prepared at the time of the assay. The data was normalized to % activity using a reference compound, and the EC50 values were determined using a standard 4-parameter fit.

| EC50 [nM] | SMILES |
| --- | --- |
| 15 | O=C(O)CCc1ccc2c(c1)CCN(c1cc(OC3CCC3)cc(F)c1F)C2 [Example 11, 3-{2-[5-(cyclobutyloxy)-2,3-difluorophenyl]-1,2,3,4-tetrahydro-isoquinolin-6-yl}propanoic acid] |
| 348 | CC1c2ccc(CCC(=O)O)cc2CCN1c1cc(OC2CCC2)ccc1F (centres unmarked) [Example 36, 3-{2-[5-(cyclobutyloxy)-2-fluorophenyl]-1-methyl-1,2,3,4-tetrahydroisoquinolin-6-yl}propanoic acid] |
| 27 | O=C(O)CCc1ccc2c(c1)CCN(c1cc(OC3CCC3)ccc1F)C2 [Example 19, 3-{2-[5-(cyclobutyloxy)-2-fluorophenyl]-1,2,3,4-tetrahydroiso-quinolin-6-yl}propanoic acid] |
| 19 | N#Cc1ccc(OC(F)(F)F)cc1N1CCc2c(ccc(CCC(=O)O)c2F)C1 [Example 78, 3-{2-[2-cyano-5-(trifluoromethoxy)phenyl]-5-fluoro-1,2,3,4-tetrahydro-isoquinolin-6-yl}propanoic acid] |
| 69 | Cc1nc(OC2CCC2)nc(N2CCc3c(ccc(CCC(=O)O)c3F)C2)c1C#N [Example 152, 3-{2-[5-cyano-2-(cyclobutyloxy)-6-methylpyrimidin-4-yl]-5-fluoro-1,2,3,4-tetrahydroisoquino-lin-6-yl}propanoic acid] |
| 182 | COc1cc(F)c(N2CCc3cc(CCC(=O)O)ccc3C2)cc1OC1CCC1 [Example 31, 3-{2-[5-(cyclobutyloxy)-2-fluoro-4-methoxyphenyl]-1,2,3,4-tetrahydroisoquinolin-6-yl}-propanoic acid] |
| 61 | O=C(O)[C@@H]1C[C@H]1c1ccc2c(c1)CCN(c1cc(OC3CCC3)cc(Cl)c1F)C2 [Example 114, (1R,2R)-2-{2-[3-chloro-5-(cyclobutyloxy)-2-fluorophenyl]-1,2,3,4-tetrahydroisoquinolin-6-yl} cyclopropanecarboxylic acid] |
| 41 | CO[C@H]1C[C@H](Oc2cc(F)c(F)c(N3CCc4c(ccc(CCC(=O)O)c4F)C3)c2)C1 [Example 66, 3-(2-{2,3-difluoro-5-[(trans-3-methoxycyclobutyl)oxy]phenyl}-5-fluoro-1,2,3,4-tetrahydroisoquino-lin-6-yl)-propanoic acid] |
| 395 | Cc1ccc(-n2nc(C)c(F)c2CN2CCc3cc(CCC(=O)O)ccc3C2)cc1 [Example 143, 3-(2-{[4-fluoro-3-methyl-1-(4-methylphenyl)-1H-pyrazol-5-yl]methyl}-1,2,3,4-tetrahydroisoquinolin-6-yl)propanoic acid] |
| 482 | Cc1nn(-c2ccc(F)cc2)c(N2CCc3cc(C4CC4C(=O)O)ccc3C2)c1F (centres unmarked) [Example 92, 2-{2-[4-fluoro-1-(4-fluorophenyl)-3-methyl-1H-pyrazol-5-yl]-1,2,3,4-tetrahydroisoquinolin-6-yl} cyclo-propanecarboxylic acid] |
| 510 | CC(Cc1ccc2c(c1)CCN(c1cc(OC(F)(F)F)ccc1F)C2)C(=O)O (centres unmarked) [Example 52] |
| 97 | O=C(O)CCc1ccc2c(c1)CCN(c1cc(SC3CCC3)ncc1F)C2 [Example 26, 3-{2-[2-(cyclobutylsulfanyl)-5-fluoropyridin-4-yl]-1,2,3,4-tetrahydro-isoquinolin-6-yl}propanoic acid] |
| 4300 | Cc1ccc(-n2nc(C)c(C#N)c2N2CCc3cc(OCCCO)ccc3C2)cc1 [Example 144, 5-[6-(3-hydroxypropoxy)-3,4-dihydroisoquinolin-2(1H)-yl]-3-methyl-1-(4-methylphenyl)-1H-pyrazole-4-carbonitrile] |
| 299 | O=C(O)[C@H]1C[C@@H]1c1ccc2c(c1F)CCN(c1cc(OC(F)(F)F)cc(Cl)c1F)C2 [Example 120, (1S,2S)-2-{2-[3-chloro-2-fluoro-5-(trifluoromethoxy)phenyl]-5-fluoro-1,2,3,4-tetrahydroisoquinolin-6-yl}cyclopropane-carboxylic acid] |
| 233 | CC1c2ccc(CCC(=O)O)cc2CCN1c1cc(OC2CCC2)cc(F)c1F (centres unmarked) [Example 32, 3-{2-[5-(cyclobutyloxy)-2,3-difluorophenyl]-1-methyl-1,2,3,4-tetrahydroisoquinolin-6-yl}-propanoic acid] |
| 169 | COc1cc(F)c(N2CCc3cc(CCC(=O)O)ccc3C2)cc1Oc1ccc(C)cn1 [Example 28, 3-(2-{2-fluoro-4-methoxy-5-[(5-methylpyridin-2-yl)oxy]phenyl}-1,2,3,4-tetrahydroisoquinolin-6-yl)propanoic acid] |
| 185 | CO[C@H]1C[C@H](Oc2cc(C#N)c(F)c(N3CCc4cc([C@@H]5C[C@H]5C(=O)O)ccc4C3)c2)C1 [Example 89, (1R,2R)-2-(2-{3-cyano-2-fluoro-5-[(trans-3-methoxycyclobutyl)oxy]phenyl}-1,2,3,4-tetrahydro-isoquinolin-6-yl)cyclopropane-carboxylic acid] |
| 533 | CC(CC(=O)O)c1ccc2c(c1)CCN(c1cc(OC(F)(F)F)ccc1F)C2 (centres unmarked) [Example 7, 3-(2-(2-fluoro-5-(trifluoromethoxy)phenyl)-1,2,3,4-tetrahydroisoquinolin-6-yl)butanoic acid] |
| 14 | O=C(O)CCc1ccc2c(c1)CCN(c1cc(OC3CCC3)cc(C(F)F)c1F)C2 [Example 10, 3-{2-[5-(cyclobutyloxy)-3-(difluoromethyl)-2-fluorophenyl]-1,2-3,4-tetrahydroisoquinolin-6-yl}-propanoic acid] |
| 20 | Cc1cnc(Oc2cc(C(F)F)c(F)c(N3CCc4cc(CCC(=O)O)ccc4C3)c2)s1 [Example 14, 3-(2-{3-(difluoromethyl)-2-fluoro-5-[(5-methyl-1,3-thiazol-2-yl)oxy]phenyl}-1,2,3,4-tetrahydro-isoquinolin-6-yl)propanoic acid] |
| 766 | O=C(O)[C@@H]1C[C@H]1c1ccc2c(c1F)CCN(c1cc(OC3CCC3)cc(Cl)c1F)C2 [Example 123, (1R,2R)-2-{2-[3-chloro-5-(cyclobutyloxy)-2-fluorophenyl]-5-fluoro-1,2,3,4-tetrahydroisoquinolin-6-yl}cyclopropane-carboxylic acid] |
| 18 | COc1cc(OC(F)(F)F)cc(N2CCc3cc(CCC(=O)O)ccc3C2)c1F [Example 13, 3-{2-[2-fluoro-3-methoxy-5-(trifluoromethoxy)phenyl]-1,2,3,4-tetrahydroisoquinolin-6-yl}-propanoic acid] |
| 471 | CC(Cc1ccc2c(c1F)CCN(c1cc(OC3CCC3)cc(F)c1C#N)C2)C(=O)O (centres unmarked) [Example 79, 3-(2-(2-cyano-5-cyclobutyloxy-3-fluorophenyl)-5-fluoro-1,2,3,4-tetra hydroisoquinolin-6-yl)-2-methyl-propanoic acid] |
| 32 | O=C(O)[C@@H]1C[C@H]1c1ccc2c(c1F)CCN(c1cc(OC(F)(F)F)cc(Cl)c1F)C2 [Example 111, (1R,2R)-2-{2-[3-chloro-2-fluoro-5-(trifluoromethoxy)-phenyl]-5-fluoro-1,2,3,4-tetrahydroisoquinolin-6-yl}cyclo-propanecarboxylic acid] |
| 58 | CC(Cc1ccc2c(c1F)CCN(c1cc(OC(F)(F)F)cc(Cl)c1F)C2)C(=O)O (single isomer, unassigned) [Example 68, 3-{2-[3-chloro-2-fluoro-5-(trifluoromethoxy)phenyl]-5-fluoro-1,2,3,4-tetrahydroisoquinolin-6-yl}-2-methyl-propanoic acid] |

| SMILES | EC50 [nM] |
| --- | --- |
| CC1c2ccc(CCC(=O)O)cc2CCN1c1cc(OC2CCC2)ccc1F (centres unmarked) [Example 6, 3-(2-(5-cyclobutoxy-2-fluorophenyl)-1-methyl-1,2,3,4-tetrahydroisoquinolin-6-yl)-propanoic acid] | 417 |
